Data reported in PubChem BioAssay (NCI).
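Compound exposure: 48 hours, 5 concentrations, 96-well plates. GI50 marks 50% less growth. Definition used: TGI = concentration required for complete inhibition of growth.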

How the values were obtained:
Test in all cases: growth of human tumour cells (NCI), 48 h
UO-31 renal = system: UO-31 renal
RPMI-8226 leukemia = system: RPMI-8226 leukemia
BT-549 breast = system: BT-549 breast
NCI-H23 lung = system: NCI-H23 lung
MDA-MB-231 breast = system: MDA-MB-231 breast
SR leukemia = system: SR leukemia
A498 renal = system: A498 renal
SK-OV-3 ovarian = system: SK-OV-3 ovarian
SK-MEL-2 melanoma = system: SK-MEL-2 melanoma
NCI-H226 lung = system: NCI-H226 lung

SMILES | TGI (UO-31 renal) [µM] | TGI (RPMI-8226 leukemia) [µM] | TGI (BT-549 breast) [µM] | TGI (NCI-H23 lung) [µM] | TGI (MDA-MB-231 breast) [µM] | TGI (SR leukemia) [µM] | TGI (A498 renal) [µM] | TGI (SK-OV-3 ovarian) [µM] | TGI (SK-MEL-2 melanoma) [µM] | TGI (NCI-H226 lung) [µM] | GI50 (UO-31 renal) [µM] | GI50 (RPMI-8226 leukemia) [µM] | GI50 (BT-549 breast) [µM] | GI50 (NCI-H23 lung) [µM] | GI50 (MDA-MB-231 breast) [µM] | GI50 (SR leukemia) [µM] | GI50 (A498 renal) [µM] | GI50 (SK-OV-3 ovarian) [µM] | GI50 (SK-MEL-2 melanoma) [µM] | GI50 (NCI-H226 lung) [µM]
COC(=O)C1(N2CCOCC2)CCC([C@@H](c2ccccc2)C(C)[N+](=O)[O-])C1 (stereo not given in full) | > 100 | 42.9 | 60.8 | > 100 | > 100 | 60.4 | > 100 | > 100 | > 100 | > 100 | – | – | – | – | – | – | – | – | – | –
N/C(=N/O)NOCCC(N)C(=O)O (stereo not given) | > 100 | > 100 | > 100 | > 100 | > 100 | > 100 | > 100 | > 100 | > 100 | > 100 | > 100 | > 100 | > 100 | > 100 | > 100 | > 100 | > 100 | > 100 | > 100 | > 100
NS(=O)(=O)c1ccc(NC(=O)Nc2cccc3ccccc23)cc1 | 31.8 | > 100 | > 100 | > 100 | 41.1 | > 100 | 52.2 | > 100 | > 100 | 52.8 | – | – | – | – | – | – | – | – | – | –
Clc1ccc(Nc2nnc(COc3ccccc3)c3ccccc23)cc1 | 5.2 | 6.96 | 6.65 | 7.87 | 6.9 | 11.2 | 3.64 | 9.96 | 5.13 | 6.58 | 0.727 | 1.37 | 2.05 | 1.56 | 1.28 | 1.23 | 0.686 | 2.38 | 0.971 | 1.56
COc1cc(/C=C/[N+](=O)[O-])cc(OC)c1 | 3.4 | 4.61 | 3.65 | 4.37 | 8.48 | 5.45 | 9.12 | 23.1 | 4.76 | 46.1 | 1.78 | 1.85 | 1.85 | 1.85 | 2.72 | 1.14 | 2.96 | 11.1 | 2.1 | 17.3
COc1ccc(C2CC(=O)Nc3c2c(C)nn3-c2nc3ccccc3[nH]2)cc1OC (stereo not given) | 14.6 | 8.68 | 33.7 | 22.1 | 21 | 26.2 | 13.4 | 6.49 | 21.9 | 14.1 | 3.37 | 3.08 | 4.19 | 3.66 | 4.39 | 3.36 | 2.01 | 2.89 | 4.85 | 3.31
CCN(CC(O)COc1ccc2c(c1)[n+]([O-])nc(N)[n+]2[O-])C(C)=O (stereo not given) | > 100 | > 100 | > 100 | > 100 | > 100 | > 100 | > 100 | > 100 | > 100 | > 100 | – | – | – | – | – | – | – | – | – | –
CS(=O)(=O)Nc1cc(-c2ccc3ncnc(Nc4ccc(OCc5ccccn5)c(Cl)c4)c3c2)cnc1Cl | 3.86 | 1.03 | 1.23 | > 100 | 2.03 | 2.77 | 0.641 | 1.16 | 0.739 | 11 | 0.337 | 0.286 | 0.14 | 0.381 | 0.313 | 0.374 | 0.155 | 0.21 | 0.184 | 0.549
S=C1NC(c2ccccc2)NC(c2ccccc2)S1 (stereo not given) | > 100 | > 100 | > 100 | > 100 | > 100 | > 100 | > 100 | > 100 | > 100 | > 100 | – | – | – | – | – | – | – | – | – | –
